From publication PMC10705530, “Lactate Dehydrogenase Gene Family in Spirometra mansoni (Cestoda: Diphyllobothriidea)—Phylogenetic Patterns and Molecular Characteristics” (Animals : an Open Access Journal from MDPI, 2023)

How the values were obtained:
[1] = target: T1, rSmLDH (SmLDH1, lactate dehydrogenase) (Spirometra erinaceieuropaei, UniProt E3SW74); assay: LDH activity at […] nm, Lineweaver-Burk Ki (lactate oxidation; reduction Ki […], IC50 […]); format: biochemical
T1 construct: gene LDH; recombinant SmLDH1 (GenBank ADK62519.1, 338 aa), pQE-80L, E. coli BL21
T1 sequence (E3SW74 1-338): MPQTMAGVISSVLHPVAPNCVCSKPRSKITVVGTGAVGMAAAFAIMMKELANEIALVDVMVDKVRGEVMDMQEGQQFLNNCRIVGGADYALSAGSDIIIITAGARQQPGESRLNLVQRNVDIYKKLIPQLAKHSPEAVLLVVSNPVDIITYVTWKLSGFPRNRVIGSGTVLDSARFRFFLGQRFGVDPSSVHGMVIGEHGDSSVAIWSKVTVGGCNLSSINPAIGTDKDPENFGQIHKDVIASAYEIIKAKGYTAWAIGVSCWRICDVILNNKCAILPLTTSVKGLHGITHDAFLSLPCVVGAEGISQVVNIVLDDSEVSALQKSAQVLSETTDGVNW

[2] = target: T1, rSmLDH (SmLDH1, lactate dehydrogenase); assay: LDH activity at […] nm, Lineweaver-Burk Ki (lactate oxidation; reduction Ki […]); format: biochemical
[3] = target: T1, rSmLDH (SmLDH1, lactate dehydrogenase); assay: as above; format: biochemical; remark: listed apart in the source
[4] = target: T1, rSmLDH (SmLDH1, lactate dehydrogenase); assay: LDH activity at […] nm, Lineweaver-Burk Ki (pyruvate reduction; oxidation Ki […]); format: biochemical
[5] = substrate: CC(=O)C(=O)O; assay: enzyme kinetics, Km by Lineweaver-Burk plot; format: biochemical, Spirometra erinaceieuropaei; conditions: NADH key catalytic sites […] R, […] D and […] H (model)
[6] = substrate: CC(O)C(=O)O; assay: enzyme kinetics, Km by Lineweaver-Burk plot; format: biochemical, Spirometra erinaceieuropaei; conditions: NAD+
[7] = substrate: NC(=O)C1=CN([C@@H]2O[C@H](COP(=O)(O)OP(=O)(O)OC[C@H]3O[C@@H](n4cnc5c(N)ncnc54)[C@H](O)[C@@H]3O)[C@@H](O)[C@H]2O)C=CC1; assay: enzyme kinetics, Km by Lineweaver-Burk plot; format: biochemical, Spirometra erinaceieuropaei; conditions: varied: cofactor
[8] = substrate: NC(=O)c1ccc[n+]([C@@H]2O[C@H](COP(=O)([O-])OP(=O)(O)OC[C@H]3O[C@@H](n4cnc5c(N)ncnc54)[C@H](O)[C@@H]3O)[C@@H](O)[C@H]2O)c1; assay: enzyme kinetics, Km by Lineweaver-Burk plot; format: biochemical, Spirometra erinaceieuropaei; conditions: varied: cofactor

Molecule: Cc1cc2c(C(C)C)c(O)c(O)c(C=O)c2c(O)c1-c1c(C)cc2c(C(C)C)c(O)c(O)c(C=O)c2c1O [Gsp, Gossypol]
- Ki [1]: 41.7 µM

Molecule: O=C(O)c1cccnc1 [Niacin, Nicotinic Acid]
- Ki [2]: 2090 µM

Molecule: O=C(O)C(=O)O [Oxalate]
- Ki [3]: 47.1 µM

Molecule: NC(=S)c1cccnc1 [Thio, Thionicotinamide]
- Ki [4]: 89.4 µM

B1: rSmLDH (SmLDH1, lactate dehydrogenase) (Spirometra erinaceieuropaei) (protein)
chain: MPQTMAGVISSVLHPVAPNCVCSKPRSKITVVGTGAVGMAAAFAIMMKELANEIALVDVMVDKVRGEVMDMQEGQQFLNNCRIVGGADYALSAGSDIIIITAGARQQPGESRLNLVQRNVDIYKKLIPQLAKHSPEAVLLVVSNPVDIITYVTWKLSGFPRNRVIGSGTVLDSARFRFFLGQRFGVDPSSVHGMVIGEHGDSSVAIWSKVTVGGCNLSSINPAIGTDKDPENFGQIHKDVIASAYEIIKAKGYTAWAIGVSCWRICDVILNNKCAILPLTTSVKGLHGITHDAFLSLPCVVGAEGISQVVNIVLDDSEVSALQKSAQVLSETTDGVNW
notes: recombinant SmLDH1 (GenBank ADK62519.1, 338 aa), pQE-80L, E. coli BL21
- Km [5]: 4430 µM
- Km [6]: 75190 µM
- Km [7]: 490 µM
- Km [8]: 480 µM
